Test results published in the supplement of paper PMC10307832.

Key:
Test in all cases: relative viability (nuclei count vs DMSO), 5 days (fraction); higher = more cells survive
PC-3 [JPC-3] = test system: PC-3 [JPC-3]
In short: (§1)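 Relative viability equals treated-well nuclei counts divided by vehicle-well nuclei counts. Counts came from 4× images of lung cancer cell lines grown in 1536-well plates for 5 days after pin-tool dosing on the day after seeding. Dosing used one drug alone or a fixed anchor-drug dose plus five library-drug doses (not always all listed) in √10 steps, and values are medians of duplicate plates.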

CAL-12T = test system: CAL-12T
In short: as §1

NCI-H2023 = test system: NCI-H2023
In short: as §1

NCI-H661 = test system: NCI-H661
In short: as §1

NCI-H2087 = test system: NCI-H2087
In short: as §1

NCI-H1944 = test system: NCI-H1944
In short: as §1

NCI-H650 = test system: NCI-H650
In short: as §1

LCLC-97TM1 = test system: LCLC-97TM1
In short: as §1

NCI-H1650 = test system: NCI-H1650
In short: as §1

NCI-H460 = test system: NCI-H460
In short: as §1

A-427 = test system: A-427
In short: as §1

ABC-1 = test system: ABC-1
In short: as §1

NCI-H727 = test system: NCI-H727
In short: as §1

LC-2-ad = test system: LC-2-ad
In short: as §1

H3255 = test system: H3255
In short: as §1

NCI-H520 = test system: NCI-H520
In short: as §1

NCI-H1651 = test system: NCI-H1651
In short: as §1

NCI-H1915 = test system: NCI-H1915
In short: as §1

201T = test system: 201T
In short: as §1

BEN = test system: BEN
In short: as §1

NCI-H596 = test system: NCI-H596
In short: as §1

NCI-H441 = test system: NCI-H441
In short: as §1

## Nc1ccn([C@@H]2O[C@H](CO)[C@@H](O)[C@@H]2O)c(=O)n1 [Cytarabine] + COc1cc2c(Oc3ccc(NC(=O)C4(C(=O)Nc5ccc(F)cc5)CC4)cc3F)ccnc2cc1OCCCN1CCOCC1 [Foretinib] (partner 0.25 µM)
PC-3 [JPC-3]; first compound 0.005 µM
  relative viability: 0.947
PC-3 [JPC-3]; first compound 0.01581 µM
  relative viability: 0.832
PC-3 [JPC-3]; first compound 0.05 µM
  relative viability: 0.939
PC-3 [JPC-3]; first compound 0.1581 µM
  relative viability: 0.629
PC-3 [JPC-3]; first compound 0.5 µM
  relative viability: 0.615
CAL-12T; first compound 0.005 µM
  relative viability: 1.11
CAL-12T; first compound 0.01581 µM
  relative viability: 1.18
CAL-12T; first compound 0.05 µM
  relative viability: 1.05
CAL-12T; first compound 0.1581 µM
  relative viability: 0.619
CAL-12T; first compound 0.5 µM
  relative viability: 0.358
NCI-H2023; first compound 0.005 µM
  relative viability: 0.535
NCI-H2023; first compound 0.01581 µM
  relative viability: 0.502
NCI-H2023; first compound 0.05 µM
  relative viability: 0.158
NCI-H2023; first compound 0.1581 µM
  relative viability: 0.101
NCI-H2023; first compound 0.5 µM
  relative viability: 0.0682
NCI-H661; first compound 0.005 µM
  relative viability: 0.93
NCI-H661; first compound 0.01581 µM
  relative viability: 0.942
NCI-H661; first compound 0.05 µM
  relative viability: 0.884
NCI-H661; first compound 0.1581 µM
  relative viability: 0.68
NCI-H661; first compound 0.5 µM
  relative viability: 0.519
NCI-H2087; first compound 0.005 µM
  relative viability: 1.11
NCI-H2087; first compound 0.01581 µM
  relative viability: 0.834
NCI-H2087; first compound 0.05 µM
  relative viability: 0.851
NCI-H2087; first compound 0.1581 µM
  relative viability: 0.491
NCI-H2087; first compound 0.5 µM
  relative viability: 0.253
NCI-H1944; first compound 0.005 µM
  relative viability: 0.633
NCI-H1944; first compound 0.01581 µM
  relative viability: 0.438
NCI-H1944; first compound 0.05 µM
  relative viability: 0.331
NCI-H1944; first compound 0.1581 µM
  relative viability: 0.223
NCI-H1944; first compound 0.5 µM
  relative viability: 0.168
NCI-H650; first compound 0.005 µM
  relative viability: 0.857
NCI-H650; first compound 0.01581 µM
  relative viability: 0.642
NCI-H650; first compound 0.05 µM
  relative viability: 0.504
NCI-H650; first compound 0.1581 µM
  relative viability: 0.283
NCI-H650; first compound 0.5 µM
  relative viability: 0.227
LCLC-97TM1; first compound 0.005 µM
  relative viability: 0.924
LCLC-97TM1; first compound 0.01581 µM
  relative viability: 0.814
LCLC-97TM1; first compound 0.05 µM
  relative viability: 0.749
LCLC-97TM1; first compound 0.1581 µM
  relative viability: 0.469
LCLC-97TM1; first compound 0.5 µM
  relative viability: 0.485
NCI-H1650; first compound 0.005 µM
  relative viability: 0.783
NCI-H1650; first compound 0.01581 µM
  relative viability: 0.973
NCI-H1650; first compound 0.05 µM
  relative viability: 0.73
NCI-H1650; first compound 0.1581 µM
  relative viability: 0.347
NCI-H1650; first compound 0.5 µM
  relative viability: 0.211
NCI-H460; first compound 0.005 µM
  relative viability: 1.05
NCI-H460; first compound 0.01581 µM
  relative viability: 0.837
NCI-H460; first compound 0.05 µM
  relative viability: 0.492
NCI-H460; first compound 0.1581 µM
  relative viability: 0.0445
NCI-H460; first compound 0.5 µM
  relative viability: 0.0401
A-427; first compound 0.005 µM
  relative viability: 0.975
A-427; first compound 0.01581 µM
  relative viability: 0.399
A-427; first compound 0.05 µM
  relative viability: 0.296
A-427; first compound 0.1581 µM
  relative viability: 0.182
A-427; first compound 0.5 µM
  relative viability: 0.176
ABC-1; first compound 0.005 µM
  relative viability: 0.997
ABC-1; first compound 0.01581 µM
  relative viability: 1.14
ABC-1; first compound 0.05 µM
  relative viability: 1.06
ABC-1; first compound 0.1581 µM
  relative viability: 1.01
ABC-1; first compound 0.5 µM
  relative viability: 0.63
NCI-H727; first compound 0.005 µM
  relative viability: 0.656
NCI-H727; first compound 0.01581 µM
  relative viability: 0.681
NCI-H727; first compound 0.05 µM
  relative viability: 0.597
NCI-H727; first compound 0.1581 µM
  relative viability: 0.488
NCI-H727; first compound 0.5 µM
  relative viability: 0.397
LC-2-ad; first compound 0.005 µM
  relative viability: 0.899
LC-2-ad; first compound 0.01581 µM
  relative viability: 0.823
LC-2-ad; first compound 0.05 µM
  relative viability: 0.839
LC-2-ad; first compound 0.1581 µM
  relative viability: 0.62
LC-2-ad; first compound 0.5 µM
  relative viability: 0.41
H3255; first compound 0.005 µM
  relative viability: 0.889
H3255; first compound 0.01581 µM
  relative viability: 0.905
H3255; first compound 0.05 µM
  relative viability: 0.628
H3255; first compound 0.1581 µM
  relative viability: 0.665
H3255; first compound 0.5 µM
  relative viability: 0.531
NCI-H520; first compound 0.005 µM
  relative viability: 0.739
NCI-H520; first compound 0.01581 µM
  relative viability: 0.795
NCI-H520; first compound 0.05 µM
  relative viability: 0.974
NCI-H520; first compound 0.1581 µM
  relative viability: 0.621
NCI-H520; first compound 0.5 µM
  relative viability: 0.589
NCI-H1651; first compound 0.005 µM
  relative viability: 0.769
NCI-H1651; first compound 0.01581 µM
  relative viability: 0.808
NCI-H1651; first compound 0.05 µM
  relative viability: 0.723
NCI-H1651; first compound 0.1581 µM
  relative viability: 0.583
NCI-H1651; first compound 0.5 µM
  relative viability: 0.372
NCI-H1915; first compound 0.005 µM
  relative viability: 1.11
NCI-H1915; first compound 0.01581 µM
  relative viability: 1.02
NCI-H1915; first compound 0.05 µM
  relative viability: 1.01
NCI-H1915; first compound 0.1581 µM
  relative viability: 0.771
NCI-H1915; first compound 0.5 µM
  relative viability: 0.757
201T; first compound 0.005 µM
  relative viability: 1.1
201T; first compound 0.01581 µM
  relative viability: 1.12
201T; first compound 0.05 µM
  relative viability: 1.02
201T; first compound 0.1581 µM
  relative viability: 0.762
201T; first compound 0.5 µM
  relative viability: 0.323
BEN; first compound 0.005 µM
  relative viability: 0.768
BEN; first compound 0.01581 µM
  relative viability: 0.515
BEN; first compound 0.05 µM
  relative viability: 0.301
BEN; first compound 0.1581 µM
  relative viability: 0.278
BEN; first compound 0.5 µM
  relative viability: 0.222
NCI-H596; first compound 0.005 µM
  relative viability: 0.923
NCI-H596; first compound 0.01581 µM
  relative viability: 0.723
NCI-H596; first compound 0.05 µM
  relative viability: 0.542
NCI-H596; first compound 0.1581 µM
  relative viability: 0.44
NCI-H596; first compound 0.5 µM
  relative viability: 0.336
NCI-H441; first compound 0.005 µM
  relative viability: 0.841
NCI-H441; first compound 0.01581 µM
  relative viability: 0.856
NCI-H441; first compound 0.05 µM
  relative viability: 1.05
NCI-H441; first compound 0.1581 µM
  relative viability: 0.661
NCI-H441; first compound 0.5 µM
  relative viability: 0.4
